# Values of other authors, collected in patent US20150079136A1, “CONTROLLED RELEASE PHARMACEUTICAL FORMULATIONS OF DIRECT THROMBIN INHIBITORS” (RUBICON RESEARCH PRIVATE LIMITED, priority 2012, published 2015).
# Where a name gives a salt, the structure may show the parent alone. Read-outs that look alike come from different tables or passages of the source.
# Key:
# [1] = not given; remark: listed apart in the source
# [2] = not given; remark: listed apart in the source
# [3] = molecular target: P-glycoprotein (Homo sapiens, UniProt P08183)
# Chain of P-glycoprotein (P08183 whole entry): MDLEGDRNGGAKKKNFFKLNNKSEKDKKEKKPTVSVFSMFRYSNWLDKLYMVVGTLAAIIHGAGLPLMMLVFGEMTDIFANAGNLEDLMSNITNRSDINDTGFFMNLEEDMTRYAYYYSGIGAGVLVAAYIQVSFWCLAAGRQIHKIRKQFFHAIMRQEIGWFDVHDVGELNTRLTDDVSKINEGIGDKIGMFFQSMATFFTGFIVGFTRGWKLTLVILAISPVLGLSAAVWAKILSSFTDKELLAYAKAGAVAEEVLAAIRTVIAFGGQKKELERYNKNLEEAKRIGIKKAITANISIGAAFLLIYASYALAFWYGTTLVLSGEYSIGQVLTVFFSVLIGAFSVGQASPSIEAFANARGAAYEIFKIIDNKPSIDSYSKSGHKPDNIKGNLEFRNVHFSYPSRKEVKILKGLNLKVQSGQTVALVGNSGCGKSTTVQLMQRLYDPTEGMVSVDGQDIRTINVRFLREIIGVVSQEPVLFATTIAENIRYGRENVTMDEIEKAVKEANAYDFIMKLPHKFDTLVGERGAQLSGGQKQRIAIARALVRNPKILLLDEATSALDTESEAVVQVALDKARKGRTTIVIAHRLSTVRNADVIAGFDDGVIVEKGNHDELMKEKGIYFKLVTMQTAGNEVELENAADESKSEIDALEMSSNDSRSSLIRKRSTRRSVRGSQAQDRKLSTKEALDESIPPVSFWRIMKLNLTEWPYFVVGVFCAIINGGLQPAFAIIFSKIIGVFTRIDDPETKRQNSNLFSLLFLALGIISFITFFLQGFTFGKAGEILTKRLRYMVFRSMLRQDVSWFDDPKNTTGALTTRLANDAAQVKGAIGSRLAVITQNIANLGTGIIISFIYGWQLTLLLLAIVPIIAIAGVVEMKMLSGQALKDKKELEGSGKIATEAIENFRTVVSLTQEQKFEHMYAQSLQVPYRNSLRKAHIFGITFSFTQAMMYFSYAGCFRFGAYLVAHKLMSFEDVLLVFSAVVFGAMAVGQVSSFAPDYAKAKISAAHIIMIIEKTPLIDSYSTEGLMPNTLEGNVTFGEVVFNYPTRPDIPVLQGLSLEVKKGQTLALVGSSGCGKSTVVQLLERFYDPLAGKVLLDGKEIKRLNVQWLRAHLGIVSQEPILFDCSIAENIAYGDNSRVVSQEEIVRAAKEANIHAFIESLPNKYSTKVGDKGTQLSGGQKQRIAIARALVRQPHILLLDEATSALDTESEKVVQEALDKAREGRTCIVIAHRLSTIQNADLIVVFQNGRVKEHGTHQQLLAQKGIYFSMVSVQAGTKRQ
Compound,sensitivity to light irradiation (light irradiation),hygroscopicity (powder),degradation in the presence of moisture (presence of moisture),stability in the solid state (solid state),solubility in acidic media ([1]; acidic media),solubility in neutral and basic media ([1]; neutral and basic media),BCS class ([1]; poor aqueous solubility but good membrane permeability),elimination half life ([2]; multiple dosing),elimination half life ([2]; single dosing),substrate of efflux transporter P-glycoprotein [3],effect of high-fat meal on the bioavailability of dabigatran ([2]; coadministration with a high-fat meal),absolute bioavailability of dabigatran ([2]; following oral administration of dabigatran etexilate),"increase in oral bioavailability ([2]; marketed formulation, pellets taken without the capsule shell vs intact capsule)"
"CCCCCCOC(=O)NC(=N)c1ccc(NCc2nc3cc(C(=O)N(CCC(=O)OCC)c4ccccn4)ccc3n2C)cc1 [DEM, dabigatran etexilate mesylate]",not sensitive,non-hygroscopic,predominantly undergoes degradation by hydrolytic pathways,stable,rather high solubility,very poor solubility,Class II,about 8 hours,12 to 17 h,,,,
"CCCCCCOC(=O)NC(=N)c1ccc(NCc2nc3cc(C(=O)N(CCC(=O)OCC)c4ccccn4)ccc3n2C)cc1 [dabigatran etexilate, 1-methyl-2-[N-[4-(N-n-hexyloxycarbonylamidino)phenyl]aminomethyl]benzimidazol-5-ylcarboxylic acid-N-(2-pyridyl)-N-(2 ethoxycarbonylethyl)amides]",,,,,,,,,,substrate,no effect,3-7%,75%
